Reference: patent publication US20090246776A1, “Modulators of scarb-1 for treating acne or hyperseborrhea” (GALDERMA RESEARCH & DEVELOPMENT, priority 2006, published 2009)

Test system: SCARB-1 gene
Conditions: gonadectomized male mice, short-term treatment; effect not visible at 18, 24, 48 and 96 hours
Method: The expression of the genes was analyzed on an Affymetrix station (microfluidic model; hybridization oven; scanner; computer) following the protocols provided by the company. Briefly, the total RNA isolated from the tissues is transcribed to cDNA. From the double-stranded cDNA, a cRNA labeled with biotin is synthesized using T7 polymerase and a precursor NTP conjugated to biotin. The cRNAs are then fragmented to small sized fragments. All the molecular biology steps are checked using the Agilent “Lab on a chip” system in order to confirm the good efficiencies of the enzymatic reactions. The Affymetrix chip is hybridized with the biotinylated cRNA, rinsed and then fluorescence labeled using a fluorophore conjugated to streptavidin. After washings, the chip is scanned and the results are calculated using the MAS5 software provided by Affymetrix. An expression value is obtained for each gene as well as the indication of the significance of the value obtained.
B. Male mice were gonadectomized and treated with the vehicle or DHT. A kinetic study of the expression of the gene from 15 minutes to 96 hours was carried out. For this, the preputial glands were removed for a period ranging up to 4 days (androgenic treatment alone observation of a short-term kinetics), the RNA was isolated and the expression of the genes was analyzed by the Affymetrix technique (FIG. 2).

For `C[C@]12CCC(=O)C[C@@H]1CC[C@@H]1[C@@H]2CC[C@]2(C)[C@@H](O)CC[C@@H]12` [DHT, Dihydrotestosterone], the “mRNA for SCARB-1 in the mouse preputial gland” value was “not induced”.
